Laboratory results as given in US20200345746A1, “Oxazine Derivative for Use in the Prevention of Alzheimer's Disease in at Risk Patents” (Novartis AG, priority 2016, published 2020).

Tests used:
[1] = Drug-drug interaction study: PK of Compound 1 with the strong CYP3A4 inducer rifampicin; assay type: in vivo, human; settings: healthy volunteers, with rifampicin 600 mg q.d. vs Compound 1 alone
[2] = off-target binding or activity
Aβ42 = assay: Acute PK/PD in APOE4-TR mice: Aβ42 in CSF; assay type: in vivo, mouse; settings: for Average Aβ42 CSF ± SD: n = 6
Method: (§1) Compound 1 was formulated as a suspension. Vehicle or compound was given by oral administration in a volume of 10 ml/kg once. Vehicle: 0.1% Tween80 in 0.5% Methylcellulose in water.
(§2) Analysis of Aβ40 in Mouse Brain and Aβ40 and Aβ42 in CSF

total Aβ (40+42) = assay: Formic acid soluble total Aβ (40+42) and Aβ42/40 ratio in APP23 mouse forebrain; assay type: in vivo
Method: (§3) Frozen mouse forebrains were weighed and homogenized in 9 volumes (w/v) of ice-cold TBS-Complete (20 mM Tris-HCl pH 7.4, 137 mM NaCl, 1× Complete [Protease Inhibitor Cocktail Tablets: 1 836 145, Roche Diagnostics GmbH, Penzberg, Germany]) by sonication (90% duty cycle, output control 5, 40-55 pulses, [Sonifier 450, Branson]). After homogenization several 50 μl aliquots were prepared for analysis and were stored at −80° C.
Fifty microliter of forebrain homogenate was mixed with 116.6 μl 100% formic acid, resulting in a final formic acid concentration of 70%. Samples were stored on ice and vortexed every 5 minutes. For neutralization, 50 μl of the mixture were pipetted into a new tube, and 950 μl of 1 M Tris base, containing 1× Complete Protease inhibitor, was added. Tubes were stored at room temperature overnight and then centrifuged for 15 minutes at 14000 rpm in an Eppendorf Microzentrifuge at 4° C. From the top layer, 100 μl are removed and mixed with 100 μl of 3% Blocker A solution (part of the MesoScale assay kit). This sample was either directly applied to the assay plate (dilution 1:1332) or further diluted in 1% Blocker A solution.

Aβ40 = assay: Acute PK/PD in APOE4-TR mice: Aβ40 in CSF; assay type: in vivo, mouse; settings: for Average Aβ40 CSF ± SD: n = 6
Method: as §1, §2

sAPPβ (Swe) = assay: Triton TX-100 soluble sAPPβ (Swe) in APP23 mouse brain; assay type: in vivo; settings: APP23 mice
Method: as §3
Brain homogenates were extracted with 1% Triton X-100 in buffer and the resulting supernatant was considered to represent soluble forms of APP metabolites. In addition to Aβ40 and 42, we determined the N-terminal APP fragments sAPPα (direct cleavage product of α-secretase) and sAPPβ (Swe) (direct product of BACE1 cleavage). […] Since no change in the APP expression and Aβ generation is known to happen during this age, it is assumed that the increased values in the vehicle group (18-20 mo old) arise from “leakage” out of the Aβ deposits (which increase several fold, see below).

in vivo = settings: APOE4-TR, mouse; for AUC(0-t): po

SMILES: C[C@@]1(c2nc(NC(=O)c3ncc(C(F)(F)F)cc3Cl)ccc2F)CO[C@@](C)(C(F)(F)F)C(N)=N1 [Compound 1, N-(6-((3R,6R)-5-amino-3,6-dimethyl-6-(trifluoromethyl)-3,6-dihydro-2H-1,4-oxazin-3-yl)-5-fluoropyridin-2-yl)-3-chloro-5-(trifluoromethyl)picolinamide]
- decrease of mean AUC of Compound 1 [1]: 5-6 fold
- decrease of mean Cmax of Compound 1 [1]: 2.5 fold
- off-target binding or activity [2]: no relevant off-target binding or activity
- Mini AUEC (CSF Aβ42) (Aβ42; 3 μmol/kg acute): 38%
- Average Aβ42 CSF ± SD (Aβ42; 3 μmol/kg acute p.o., 4 h): 0.0524 ± 0.02173 pmol/mL
- Average Aβ42 CSF ± SD (Aβ42; 3 μmol/kg acute p.o., 24 h): 0.09317 ± 0.05304 pmol/mL
- % reduction vs vehicle (CSF Aβ42) (Aβ42; 3 μmol/kg acute, 4 h): 55%
- % reduction vs vehicle (CSF Aβ42) (Aβ42; 3 μmol/kg acute, 24 h): 21%
- Mini AUEC (CSF Aβ42) (Aβ42; 10 μmol/kg acute): 50%
- Average Aβ42 CSF ± SD (Aβ42; 10 μmol/kg acute p.o., 4 h): 0.02318 ± 0.00446 pmol/mL
- Average Aβ42 CSF ± SD (Aβ42; 10 μmol/kg acute p.o., 24 h): 0.09438 ± 0.09019 pmol/mL
- % reduction vs vehicle (CSF Aβ42) (Aβ42; 10 μmol/kg acute, 4 h): 80%
- % reduction vs vehicle (CSF Aβ42) (Aβ42; 10 μmol/kg acute, 24 h): 20%
- Mini AUEC (CSF Aβ42) (Aβ42; 30 μmol/kg acute): 81%
- Average Aβ42 CSF ± SD (Aβ42; 30 μmol/kg acute p.o., 4 h): 0.0080 ± 0.00395 pmol/mL
- Average Aβ42 CSF ± SD (Aβ42; 30 μmol/kg acute p.o., 24 h): 0.03717 ± 0.02438 pmol/mL
- % reduction vs vehicle (CSF Aβ42) (Aβ42; 30 μmol/kg acute, 4 h): 93%
- % reduction vs vehicle (CSF Aβ42) (Aβ42; 30 μmol/kg acute, 24 h): 68%
- Formic acid soluble Total Aβ change vs vehicle (total Aβ (40+42); APP23, 0.03 g/kg vs vehicle): −17.9%
- Formic acid soluble Total Aβ change vs vehicle (total Aβ (40+42); APP23, 0.3 g/kg vs vehicle): −79.8%
- reduction of deposited Aβ40 and Aβ42 vs vehicle (total Aβ (40+42); APP23, high dose): around 80%
- reduction of deposited Aβ40 and Aβ42 compared to vehicles (total Aβ (40+42); APP23, low dose): around 17%
- Mini AUEC (CSF Aβ40) (Aβ40; 3 μmol/kg acute): 26%
- Average Aβ40 CSF ± SD (Aβ40; 3 μmol/kg acute p.o., 4 h): 0.1308 ± 0.06381 pmol/mL
- Average Aβ40 CSF ± SD (Aβ40; 3 μmol/kg acute p.o., 24 h): 0.1402 ± 0.07911 pmol/mL
- % reduction vs vehicle (CSF Aβ40) (Aβ40; 3 μmol/kg acute, 4 h): 28%
- % reduction vs vehicle (CSF Aβ40) (Aβ40; 3 μmol/kg acute, 24 h): 23%
- Mini AUEC (CSF Aβ40) (Aβ40; 10 μmol/kg acute): 37%
- Average Aβ40 CSF ± SD (Aβ40; 10 μmol/kg acute p.o., 4 h): 0.07527 ± 0.03356 pmol/mL
- Average Aβ40 CSF ± SD (Aβ40; 10 μmol/kg acute p.o., 24 h): 0.1565 ± 0.08348 pmol/mL
- % reduction vs vehicle (CSF Aβ40) (Aβ40; 10 μmol/kg acute, 4 h): 59%
- % reduction vs vehicle (CSF Aβ40) (Aβ40; 10 μmol/kg acute, 24 h): 14%
- Mini AUEC (CSF Aβ40) (Aβ40; 30 μmol/kg acute): 77%
- Average Aβ40 CSF ± SD (Aβ40; 30 μmol/kg acute p.o., 4 h): 0.02533 ± 0.01093 pmol/mL
- Average Aβ40 CSF ± SD (Aβ40; 30 μmol/kg acute p.o., 24 h): 0.06083 ± 0.03445 pmol/mL
- % reduction vs vehicle (CSF Aβ40) (Aβ40; 30 μmol/kg acute, 4 h): 86%
- % reduction vs vehicle (CSF Aβ40) (Aβ40; 30 μmol/kg acute, 24 h): 67%
- sAPPβ (Swedish) change vs vehicle (sAPPβ (Swe); 0.03 g/kg vs vehicle): −29.0%
- sAPPβ (Swedish) change vs vehicle (sAPPβ (Swe); 0.3 g/kg vs vehicle): −77.7%
- reduction of soluble APP (Swe) (sAPPβ (Swe); low dose 0.03 g/kg food): 29%
- exposure reduction 4h/24h (in vivo): 2-5 fold
- AUCbrain (AUC0-24 h) (in vivo; 3 umol/kg): 8.67 µmol·h/kg
- AUCbrain (AUC0-24 h) (in vivo; 10 umol/kg): 15.83 µmol·h/kg
- AUCbrain (AUC0-24 h) (in vivo; 30 umol/kg): 49.82 µmol·h/kg
- AUC(0-t) (in vivo; 3 umol/kg): 1.56 µM·h
- AUC(0-t) (in vivo; 10 umol/kg): 4.86 µM·h
- AUC(0-t) (in vivo; 30 umol/kg): 14.9 µM·h
